Laboratory results as given in US10729710B2, “Catecholamine prodrugs for use in the treatment of Parkinson's disease” (H. Lundbeck A/S, priority 2017, dated 2020).
Counter-ions that a name gives are not always drawn.

How the values were obtained:
human D1 receptor = human D1 receptor (Homo sapiens (Human), UniProt P21728); test: Dopamine D1 receptor agonism, HTRF cAMP assay; format: cell-based; settings: for Emax: normalized to 30 uM dopamine = 100%
Protocol: Dopamine D1 receptor agonism was measured using a HTRF cAMP from CisBio using the protocol developed by HD Biosciences (China). Briefly, the assay is a homogeneous time resolved-fluorescence resonance energy transfer (HTRF) assay that measures production of cAMP by cells in a competitive immunoassay between native cAMP produced by cells and cAMP-labeled with XL-665. A cryptate-labeled anti-cAMP antibody visualizes the tracer. The assay was performed in accordance with instructions from manufacturer.
Test compounds were added to wells of microplates (384 format). HEK-293 cells expressing the human D1 receptor were plated at 1000 cells/well and incubated 30 min at room temperature. cAMP-d2 tracer was added to wells and followed by addition of Anti-cAMP antibody-cryptate preparation and incubated for 1 h at room temperature in dark. HTRF cAMP was measured by excitation of the donor with 337 nm laser (the “TRF light unit”) and subsequent (delay time 100 microseconds) measurement of cryptate and d2 emission at 615 nm and 665 nm over a time window of 200 microseconds with a 2000 microseconds time window between repeats/100 flashes). HRTF measurements were performed on an Envision microplate reader (PerkinElmer). The HTRF signal was calculated as the emission-ratio at 665 nm over 615 nm. The HTRF ratio readout for test compounds was normalized to 0% and 100% stimulation using control wells with DMSO-solvent or 30 uM dopamine. Test compound potency (EC50) was estimated by nonlinear regression using the sigmoidal dose-response (variable slope) using Xlfit 4 (IDBS, Guildford, Surrey, UK, model 205). y=(A+((B−A)/(1+((C/x)^D)))) where y is the normalized HTRF ratio measurement for a given concentration of test compound, x is the concentration of test compound, A is the estimated efficacy at infinite compound dilution, and B is the maximal efficacy. C is the EC50 value and D is the Hill slope coefficient. EC50 estimates were obtained from an independent experiment and the logarithmic average was calculated. Dopamine D2 Receptor Agonism

[1] = PK experiments in rats: plasma compound (I) after oral dosing of prodrugs; format: in vivo, Han Wistar rats; settings: Wistar rats, FIG. 2, doses equal to 287 μg/kg of compound (I)
Protocol: Plasma was placed on water-ice following collection. Final storage at approximately −70° C.
Mobile phase B: Acetonitrile. […] Flow rate 0.5 mL/min.
The rats had unrestricted access to the diet.
Mobile phase B: Acetonitrile+0.2% formic acid. […] Flow rate 0.3 mL/min.
Han Wistar rats were supplied by Envigo, UK. […] The rats received a standard laboratory diet Teklad 2014C. The rats had unrestricted access to the diet.

human 5-HT2B receptor = human 5-HT2B receptor (Homo sapiens (Human), UniProt P41595); test: 5-HT2B radioligand binding assay ([125I](±)DOI); settings: 0.2 nM [125I](±)DOI, read-out: 5-HT2B binding affinity (% inhibition of control, specific binding at concentration indicated)
Chain of human 5-HT2B receptor (P41595 whole entry): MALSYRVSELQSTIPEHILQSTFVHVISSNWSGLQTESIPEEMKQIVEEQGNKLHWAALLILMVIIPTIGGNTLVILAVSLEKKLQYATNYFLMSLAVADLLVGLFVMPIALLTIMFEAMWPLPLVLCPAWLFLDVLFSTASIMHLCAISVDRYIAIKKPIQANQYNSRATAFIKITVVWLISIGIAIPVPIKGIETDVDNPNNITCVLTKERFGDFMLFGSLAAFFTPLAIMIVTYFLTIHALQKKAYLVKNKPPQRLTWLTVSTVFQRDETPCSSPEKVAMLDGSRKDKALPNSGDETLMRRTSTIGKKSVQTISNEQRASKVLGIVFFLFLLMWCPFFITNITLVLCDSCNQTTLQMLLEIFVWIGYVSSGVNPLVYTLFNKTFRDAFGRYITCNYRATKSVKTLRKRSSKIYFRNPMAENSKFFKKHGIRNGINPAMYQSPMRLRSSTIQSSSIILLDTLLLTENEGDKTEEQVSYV
Protocol: Membrane homogenates prepared from CHO cells expressing the human 5HT2B receptor were incubated for 60 min at room temperature with 0.2 nM [125I](±)DOI (1-(4-iodo-2, 5-dimethoxyphenyl)propan-2-amine) in the absence or presence of the test compound in a buffer containing 50 mM Tris-HCl (pH 7.4), 5 mM MgCl2, 10 μM pargyline and 0.1% ascorbic acid. Nonspecific binding is determined in the presence of 1 μM (±)DOI. Following incubation, the samples were filtered rapidly under vacuum through glass fiber filters (GF/B, Packard) presoaked with 0.3% polyethyleneimine (PEI) and rinsed several times with ice-cold 50 mM Tris-HCl using a 96-sample cell harvester (Unifilter, Packard). The filters were dried and counted for radioactivity in a scintillation counter (Topcount, Packard) using a scintillation cocktail (Microscint 0, Packard). The results are expressed as a percent inhibition of the control radioligand specific binding. The standard reference compound was (±)DOI, which was tested in each experiment at several concentrations to obtain a competition curve from which its IC50 is calculated.

[2] = Conversion to compound (I) in fresh rat blood; format: in vitro ADME; settings: fresh blood 37° C., 1 μg/mL, 0-60 minutes, FIG. 8a
Protocol: Conversion of (Id-ia), (Id-ib), (Id-iia) and (Id-iib) in human blood (average of 3 donors) and rat blood (average of 45 donors) to (I) was shown in fresh blood at 37° C. spiked with 1 μg/mL of (Id-ia), (Id-ib), (Id-iia) and (Id-iib) separately, (I) was measured at 0, 5, 15, 30 and 60 minutes in isolated plasma. Analysis method and Instrumentation as described in Examples 4 and 5 below in the section “Instrumentation used for analysis of compound (I) from dosing of compounds (Ic), (Id-ia), (Id-ib), (Id-iia), (Id-iib), (Id-iab) and (Id-iiab).”

human D2 receptor = human D2 receptor (Homo sapiens (Human), UniProt P14416); test: Dopamine D2 receptor agonism, calcium mobilization assay; format: cell-based; settings: for Emax: normalized to 1 μM dopamine = 100%
Chain of human D2 receptor (P14416 whole entry): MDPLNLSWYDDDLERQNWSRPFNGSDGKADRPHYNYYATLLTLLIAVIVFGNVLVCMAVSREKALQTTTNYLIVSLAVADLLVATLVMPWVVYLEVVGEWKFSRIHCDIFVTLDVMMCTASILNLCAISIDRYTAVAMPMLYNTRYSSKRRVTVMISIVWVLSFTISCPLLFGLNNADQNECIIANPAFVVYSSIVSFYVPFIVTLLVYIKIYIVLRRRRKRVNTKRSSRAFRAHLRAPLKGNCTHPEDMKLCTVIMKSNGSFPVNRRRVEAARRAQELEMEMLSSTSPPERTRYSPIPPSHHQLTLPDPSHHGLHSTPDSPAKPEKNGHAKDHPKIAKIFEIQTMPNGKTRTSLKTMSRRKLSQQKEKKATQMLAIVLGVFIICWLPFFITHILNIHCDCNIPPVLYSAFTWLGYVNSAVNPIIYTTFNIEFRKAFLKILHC
Protocol: Dopamine D2 receptor agonism was measured using a calcium mobilization assay protocol developed by HD Biosciences (China). Briefly, HEK293/G15 cells expressing human D2 receptor were plated at a density of 15000 cells/well in clear-bottomed, Matrigel-coated 384-well plates and grown for 24 hrs at 37° C. in the presence of 5% CO2. The cells were incubated with calcium-sensitive fluorescent dye, Fluo8, for 60-90 minutes at 37° C. in the dark. Test compounds were prepared at 3-fold concentrated solution in 1×HBSS buffer with Ca^2+ and Mg^2+. Calcium Flux signal was immediately recorded after compounds were added from compound plate to cell plate at FLIPR (Molecular Devices). The fluorescence data were normalized to yield responses for no stimulation (buffer) and full stimulation (1 μM of dopamine) of 0% and 100% stimulation, respectively. Test compound potency (EC50) was estimated by nonlinear regression using the sigmoidal dose-response (variable slope) using Xlfit 4 (IDBS, Guildford, Surrey, UK, model 205). y=(A+((B−A)/(1+((C/x)^D)))) where y is the normalized ratio measurement for a given concentration of test compound, x is the concentration of test compound, A is the estimated efficacy at infinite compound dilution, and B is the maximal efficacy. C is the EC50 value and D is the Hill slope coefficient. EC50 estimates were obtained from independent experiment and the logarithmic average was calculated.

Chain of human D1 receptor (P21728 whole entry): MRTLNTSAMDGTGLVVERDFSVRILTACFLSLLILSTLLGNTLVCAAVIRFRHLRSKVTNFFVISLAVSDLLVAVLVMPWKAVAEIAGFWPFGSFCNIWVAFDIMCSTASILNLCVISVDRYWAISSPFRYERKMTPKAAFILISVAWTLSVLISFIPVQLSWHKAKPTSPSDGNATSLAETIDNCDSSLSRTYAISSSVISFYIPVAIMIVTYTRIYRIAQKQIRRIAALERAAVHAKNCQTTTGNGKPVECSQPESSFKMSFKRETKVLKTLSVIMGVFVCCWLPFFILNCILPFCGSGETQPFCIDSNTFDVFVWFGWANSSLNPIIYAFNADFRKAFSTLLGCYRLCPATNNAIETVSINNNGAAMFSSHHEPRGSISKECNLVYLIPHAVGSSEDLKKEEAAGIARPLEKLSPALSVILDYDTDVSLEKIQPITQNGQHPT

## CCCN1CCC[C@@H]2Cc3c(ccc(O)c3O[C@@H]3O[C@H](C(=O)O)[C@@H](O)[C@H](O)[C@H]3O)C[C@H]21 [(Id-ia), (2S,3S,4S,5R,6S)-3,4,5-trihydroxy-6-(((4aR,10aR)-7-hydroxy-1-propyl-1,2,3,4,4a,5,10,10a-octahydrobenzo[g]quinolin-6-yl)oxy)tetrahydro-2H-pyran-2-carboxylic acid]
Human D1 receptor; D1 and D2, example 2
  in vitro dopaminergic activity (in words): no in vitro dopaminergic activity
Human D1 receptor
  Emax: 98%
[1]
  plasma profile of compound (I) after oral dosing (in words): slower absorption rate avoiding rapid peak concentrations accompanied by a sustained exposure of compound (I) in plasma
Human 5-HT2B receptor
  inhibition at 10 µM: -25%
[2]
  conversion to compound (I) in rat blood: time dependent conversion to compound (I)
Human D2 receptor
  Emax: 92%

## CCCN1CCC[C@@H]2Cc3c(ccc(O)c3OS(=O)(=O)O)C[C@H]21 [(Id-iia), (4aR,10aR)-7-hydroxy-1-propyl-1,2,3,4,4a,5,10,10a-octahydrobenzo[g]quinolin-6-yl hydrogen sulfate]
Human D1 receptor; HEK-293 cells expressing human D1 receptor, cAMP
  EC50: > 30 µM
Human D1 receptor
  Emax: 49%
[1]
  plasma profile of compound (I) after oral dosing (in words): slower absorption rate avoiding rapid peak concentrations accompanied by a sustained exposure of compound (I) in plasma
Human 5-HT2B receptor
  inhibition at 10 µM: 6%
[2]
  conversion to compound (I) in rat blood: time dependent conversion to compound (I)
Human D2 receptor; HEK293/G15 cells expressing human D2 receptor, calcium flux
  EC50: > 30 µM
Human D2 receptor
  Emax: 48%
